The experiment deals with T1, BRD9-GFP (Homo sapiens, UniProt Q9H8M2).
T1 construct: CHYSEL (2A cis-acting hydrolase element) remnant after GFP; mCherry is split off as a separate protein (C); expressed in transfected cells; host or cells: HEK293A cells (Invitrogen R70507), lentiviral transduction with pLenti6-BRD9-GFP-CHYSEL-mCherry, blasticidin selection
T1 sequence (Q9H8M2 1-597): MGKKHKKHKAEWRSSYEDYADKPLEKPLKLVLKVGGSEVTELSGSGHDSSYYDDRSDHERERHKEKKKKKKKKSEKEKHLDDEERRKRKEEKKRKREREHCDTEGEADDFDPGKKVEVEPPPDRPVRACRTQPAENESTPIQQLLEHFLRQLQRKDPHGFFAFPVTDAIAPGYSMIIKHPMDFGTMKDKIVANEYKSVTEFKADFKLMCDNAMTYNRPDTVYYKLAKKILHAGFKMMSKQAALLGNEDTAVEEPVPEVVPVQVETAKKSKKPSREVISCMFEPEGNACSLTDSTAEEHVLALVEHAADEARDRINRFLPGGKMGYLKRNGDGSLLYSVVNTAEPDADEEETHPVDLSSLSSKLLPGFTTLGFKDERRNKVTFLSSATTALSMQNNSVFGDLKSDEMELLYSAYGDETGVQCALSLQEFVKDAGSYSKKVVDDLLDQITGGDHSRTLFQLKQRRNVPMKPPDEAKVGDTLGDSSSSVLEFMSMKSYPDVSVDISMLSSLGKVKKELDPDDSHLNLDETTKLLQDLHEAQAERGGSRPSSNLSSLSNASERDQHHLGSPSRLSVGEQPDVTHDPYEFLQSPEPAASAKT
As to the kind of experiment: BRD9-GFP protein abundance flow cytometry assay in HEK293A cells. The note with it: HEK293A-BRD9-GFP-CHYSEL-mCherry cells; for BRD9 Deg Amax %: 24 h, % protein remaining at the concentration at which maximum degradation is seen; for DC50: 24 h at 37° C., 10-point 1:3 dilution, concentration at which 50% maximal degradation was observed. It is filed as cell-based. As for the experimental part: Compounds of the invention were tested in the following cellular assays. The terms in Table 1 are defined as follows: DC50 refers to the concentration at which 50% maximal degradation was observed; deg Amax is the extent of degradation and the value refers to the % protein remaining at the concentration at which maximum degradation is seen.
BRD9-GFP protein abundance flow cytometry assay in HEK293A cells: Degradation of BRD9 was measured in HEK293A cells expressing BRD9-GFP and mCherry from a stably integrated second generation bicistronic BRD9-GFP-CHYSELmCherry construct. Reduction of the GFP signal measured by flow cytometry served as readout for BRD9 degradation after degrader treatment.
The bicistronic BRD9-GFP-CHYSEL-mCherry construct is based on a pLenti6-DEST vector backbone where a GFP-CHYSEL-mCherry cassette was synthesized and inserted downstream of the DEST cassette by Gibson assembly resulting in the new gateway compatible vector pLenti6-DEST-GFP-CHYSEL-mCherry to allow Gateway cloning with pENTR221-BRD9 (w/o ATG) to obtain the final sensor construct pLenti6-BRD9-GFP-CHYSEL-mCherry.
HEK293 Å-BRD9-GFP-CHYSEL-mCherry sensor cells were generated by lentiviral vector transduction using the pLenti6-BRD9-GFP-CHYSEL-mCherry sensor construct described before. […] The mix was incubated for another 20 min at RT and then added to 1 ml of a freshly prepared suspension of HEK293FT cells in a well of a 6-well plate (concentration 1.2×10^6 cells/ml). 1 day after transfection, the medium was replaced with 1.5 ml of complete growth medium (DMEM high Glucose+10% FCS+1% L-Glutamine+1% NEAA+1% NaPyr.). 48 h post transfection supernatant containing viral transducing particles was collected and frozen at −80° C. […] Infection was performed with […] of collected supernatant containing viral transducing particles in 1 ml medium including 8 μg/ml polybrene. 24 h post infection, stably transfected cells were selected with blasticidin at a concentration of 8 μg/ml.
Stable HEK293 Å-BRD9-GFP-CHYSEL-mCherry cells were maintained in complete growth medium (DMEM high Glucose+10% FCS+1% L-Glutamine+1% NEAA+1% NaPyr.) with passaging performed twice per week. On Day 0, HEK293 Å-BRD9-GFP-CHYSEL-mCherry cells were seeded at 10,000 cells/well in a 96-well microtiter plate in […] complete medium. On Day 1, cells were treated in duplicate with 10-point 1:3 dilution series of compound using the HP D300 Digital Dispenser (Tecan). DMSO concentrations were normalized across the plate to 0.1%. On Day 2, after 24 h of incubation at 37° C., treatment media was discarded, cells rinsed with 100 ul/well PBS and then detached using 40 ul trypsin/well for 5 min. Trypsin was neutralized with 100 ul/well PBS+20% FCS). Flow cytometry was performed on the samples using the Beckman Coulter CytoFLEX flow cytometer. Cell identification was then performed using forward (FSC) vs. side scatter (SSC) plots. Single cell discrimination is performed using FSC-Width (FSC-W) vs. FSC-Height (FSC-H) plots. Median GFP/mCherry ratio values for 5,000 single cells are used to determine BRD9 levels. Median GFP/mCherry ratio values from HEK293 Å-mCherry are used as a background signal and thus defining 0% BRD9 signal. Median GFP/mCherry ratio values from DMSO treated HEK293 Å-BRD9-GFP-CHYSEL-mCherry are used to define 100% BRD9 signal for subsequent DC50 curves (concentration at 50% BRD9 degradation). Concentration response curves plotting relative reduction of the GFP/mCherry ratio signal (measured by flow cytometry) versus 10 compound concentrations (starting concentration […], 3 fold dilution steps) of the compounds allowed generation of DC50 values. Data is shown in Tables 2 and 3, in which, DC50 refers to the concentration at which 50% maximal degradation was observed; deg Amax is the extent of degradation and the value refers to the % protein remaining at the concentration at which maximum degradation is seen.

The values below come from US20220315578A1, “BRD9 BIFUNCTIONAL DEGRADERS AND THEIR METHODS OF USE” (NOVARTIS AG, priority 2019, published 2022).

A word on the DC50: it is the midpoint of the concentration-degradation curve. For `COc1cc(-c2cn(C)c(=O)c3cnccc23)c(OC)cc1/C=C/C(=O)N1CCC(OC2CCN(C(=O)c3ccc(OC)c(N4CCC(=O)NC4=O)c3)CC2)CC1` [Compound A27, (E)-1-(5-(4-((1-(3-(2,5-dimethoxy-4-(2-methyl-1-oxo-1,2-dihydro-2,7-naphthyridin-4-yl)phenyl)acryloyl)piperidin-4-yl)oxy)piperidine-1-carbonyl)-2-methoxyphenyl)dihydropyrimidine-2,4(1H,3H)-dione], the “BRD9 Deg Amax %” value stood at 12.02% and the DC50 was 49 nM.

As to `COc1cc(-c2cn(C)c(=O)c3cnccc23)cc(OC)c1CCCN1CCC(OC2CCN(C(=O)c3ccc(Cl)c(N4CCC(=O)NC4=O)c3)CC2)CC1` [Compound A28, 1-(2-Chloro-5-(4-((1-(3-(2,6-dimethoxy-4-(2-methyl-1-oxo-1,2-dihydro-2,7-naphthyridin-4-yl)phenyl)propyl)piperidin-4-yl)oxy)piperidine-1-carbonyl)phenyl)dihydropyrimidine-2,4(1H,3H)-dione], the “BRD9 Deg Amax %” value is listed as 22.70% and it took 2 nM to reach half-maximal degradation (DC50).

Consider `COc1cc(-c2cn(C)c(=O)c3cnccc23)c(OC)cc1CN1CCC(OC2CCN(C(=O)c3ccc(C)c(N4CCC(=O)NC4=O)c3)CC2)CC1` [Compound A29, 1-(5-(4-((1-(2,5-Dimethoxy-4-(2-methyl-1-oxo-1,2-dihydro-2,7-naphthyridin-4-yl)benzyl)piperidin-4-yl)oxy)piperidine-1-carbonyl)-2-methylphenyl)dihydropyrimidine-2,4(1H,3H)-dione], for which the “BRD9 Deg Amax %” value is given as 15.75% and the DC50 was 34 nM.

In the case of `COc1cc(-c2cn(C)c(=O)c3cnccc23)c(OC)cc1CN1CCC(OC2CCN(C(=O)c3ccc(Cl)c(N4CCC(=O)NC4=O)c3)CC2)CC1` [Compound A30, 1-(2-Chloro-5-(4-((1-(2,5-dimethoxy-4-(2-methyl-1-oxo-1,2-dihydro-2,7-naphthyridin-4-yl)benzyl)piperidin-4-yl)oxy)piperidine-1-carbonyl)phenyl)dihydropyrimidine-2,4(1H,3H)-dione], the “BRD9 Deg Amax %” value is 13.99% and half-maximal degradation (DC50) was put at 16 nM.

Consider `COc1ccc(C(=O)N2CCC(OC3CCN(C(=O)/C=C/c4c(OC)cc(-c5cn(C)c(=O)c6cnccc56)cc4OC)CC3)CC2)cc1N1CCC(=O)NC1=O` [Compound A31, (E)-1-(5-(4-((1-(3-(2,6-dimethoxy-4-(2-methyl-1-oxo-1,2-dihydro-2,7-naphthyridin-4-yl)phenyl)acryloyl)piperidin-4-yl)oxy)piperidine-1-carbonyl)-2-methoxyphenyl)dihydropyrimidine-2,4(1H,3H)-dione], for which the “BRD9 Deg Amax %” value stood at 15.11% and the 50% degradation concentration (DC50) came to 10 nM.

In the case of `COc1ccc(C(=O)N2CCC(OC3CCN(CCc4c(OC)cc(-c5cn(C)c(=O)c6cnccc56)cc4OC)CC3)CC2)cc1N1CCC(=O)NC1=O` [Compound A32, 1-(5-(4-((1-(2,6-Dimethoxy-4-(2-methyl-1-oxo-1,2-dihydro-2,7-naphthyridin-4-yl)phenethyl)piperidin-4-yl)oxy)piperidine-1-carbonyl)-2-methoxyphenyl)dihydropyrimidine-2,4(1H,3H)-dione], the “BRD9 Deg Amax %” value was 16.20% and the half-maximal degradation concentration (DC50) is 6 nM.

Consider `COc1cc(-c2cn(C)c(=O)c3cnccc23)cc(OC)c1CN1CCC(OC2CCN(C(=O)c3ccc(C)c(N4CCC(=O)NC4=O)c3)CC2)CC1` [Compound A33, 1-(5-(4-((1-(2,6-Dimethoxy-4-(2-methyl-1-oxo-1,2-dihydro-2,7-naphthyridin-4-yl)benzyl)piperidin-4-yl)oxy)piperidine-1-carbonyl)-2-methylphenyl)dihydropyrimidine-2,4(1H,3H)-dione], for which the “BRD9 Deg Amax %” value was 13.30% and half-maximal degradation (DC50) was put at 34 nM.

For `COc1ccc(C(=O)N2CCC(OCCN3CCN(Cc4c(OC)cc(-c5cn(C)c(=O)c6cnccc56)cc4OC)CC3)CC2)cc1N1CCC(=O)NC1=O` [Compound A34, 1-(5-(4-(2-(4-(2,6-Dimethoxy-4-(2-methyl-1-oxo-1,2-dihydro-2,7-naphthyridin-4-yl)benzyl)piperazin-1-yl)ethoxy)piperidine-1-carbonyl)-2-methoxyphenyl)dihydropyrimidine-2,4(1H,3H)-dione], the “BRD9 Deg Amax %” value worked out at 13.80% and half-maximal degradation (DC50) was put at 37 nM.

In the case of `COc1cc(-c2cn(C)c(=O)c3cnccc23)cc(OC)c1CN1CCC(OC2CCN(C(=O)COc3ccc(N4CCC(=O)NC4=O)cc3)CC2)CC1` [Compound A35, 1-(4-(2-(4-((1-(2,6-Dimethoxy-4-(2-methyl-1-oxo-1,2-dihydro-2,7-naphthyridin-4-yl)benzyl)piperidin-4-yl)oxy)piperidin-1-yl)-2-oxoethoxy)phenyl)dihydropyrimidine-2,4(1H,3H)-dione], the “BRD9 Deg Amax %” value was determined as 13.19% and the half-maximal degradation concentration (DC50) came to 31 nM.

In the case of `COc1cc(-c2cn(C)c(=O)c3cnccc23)cc(OC)c1CN1CCC(OC2CCN(C(=O)c3cccc(N4CCC(=O)NC4=O)c3)CC2)CC1` [Compound A36, 1-(3-(4-((1-(2,6-Dimethoxy-4-(2-methyl-1-oxo-1,2-dihydro-2,7-naphthyridin-4-yl)benzyl)piperidin-4-yl)oxy)piperidine-1-carbonyl)phenyl)dihydropyrimidine-2,4(1H,3H)-dione], the “BRD9 Deg Amax %” value came out at 18.42% and half-maximal degradation (DC50) was put at 39 nM.

As for `COc1ccc(C(=O)N2CCC(OC3CCN(CCCc4c(OC)cc(-c5cn(C)c(=O)c6cnccc56)cc4OC)CC3)CC2)cc1N1CCC(=O)NC1=O` [Compound A37, 1-(5-(4-((1-(3-(2,6-Dimethoxy-4-(2-methyl-1-oxo-1,2-dihydro-2,7-naphthyridin-4-yl)phenyl)propyl)piperidin-4-yl)oxy)piperidine-1-carbonyl)-2-methoxyphenyl)dihydropyrimidine-2,4(1H,3H)-dione], the “BRD9 Deg Amax %” value was found to be 13.01% and the half-maximal degradation concentration (DC50) stood at 2 nM.

For the compound `COc1cc(-c2cn(C)c(=O)c3cnccc23)cc(OC)c1CCN1CCC(OC2CCN(C(=O)c3ccc(Cl)c(N4CCC(=O)NC4=O)c3)CC2)CC1` [Compound A38, 1-(2-Chloro-5-(4-((1-(2,6-dimethoxy-4-(2-methyl-1-oxo-1,2-dihydro-2,7-naphthyridin-4-yl)phenethyl)piperidin-4-yl)oxy)piperidine-1-carbonyl)phenyl)dihydropyrimidine-2,4(1H,3H)-dione], the “BRD9 Deg Amax %” value is 15.53% and the DC50 worked out at 1 nM.
